Entries after “also recorded” stand apart in the source; their conditions may differ.
Legend:
[1] = system: human pluripotent stem cells; experiment: Small molecule cocktails in single cell culture of human pluripotent stem cells on feeder free substratum; format: cell-based; details: in combination with MEKi/TFGβi/GSKi
Experimental: FIGS. 1A-1E. The effects of various small molecule cocktails on single cell culture of human pluripotent stem cells on feeder free substratum. FIG. 1A. Different morphologies were evident when single cell dissociated human pluripotent stem cells were treated with various combinations of small molecules in a feeder free environment. Medium containing a combination of ROCKi/MEKi/TGFβi/GSKi delivered robust growth and viability of human pluripotent stem cells. FIG. 1B. While some small molecules supported maintenance of pluripotent stem cells, i.e., MEKi/TGFβi/GSKi, and others facilitated single cell dissociation of pluripotent stem cells, i.e., Rocki, the unique combination of these small molecules, i.e., ROCKi/MEKi/TGFβi/GSKi, supported single cell dissociation while maintaining undifferentiated status as indicated by highly proliferative colonies that were positive for pluripotent marker Tra181. Tra181, red; DAPI, blue. FIG. 1C. The combination of MEKi/TFGβi/GSKi/ROCKi supported viability and proliferation when hiPSCs were seeded at 1×10^5 cells on Matrigel and scored 4 days later for number of viable cells and percent viability as measured by trypan blue. FIG. 1D. […] FIG. 1E. […]

human fibroblasts = experiment: Reprogramming of fibroblasts to iPSCs: kinetics and efficiency of colony formation; format: cell-based; details: additive used in the culture system for 3 days
Experimental: To initiate the reprogramming process, ectopic expression of reprogramming factors (in variable combinations of human Oct4, Sox2, Klf4, c-Myc, Lin28, and Nanog) was achieved using lentiviral transduction or other methods such as protein only treatment. In most cases, the starting cells were plated at 10% confluency (i.e., 1×10^5 cells per well of a 6-well plate) on a gelatin (Mediatech) coated surface. For the method of viral infection, freshly collected lentivirus was added to the starting cells at a dilution of 1:2, supplemented with 4 μg/mL polybrene (Millipore), and spin-infected at 650 g at 32° C. for 1.5 hrs. The culture was transferred to 37° C. and 5% CO2 for an additional 7 hrs. After the completion of the incubation, the cells were washed three times with PBS and fed with fresh medium. With difficult to infect cells, such as IMR90 fibroblasts in feeder-free culture systems, this process was repeated one more time, 48 hrs post the initial infection. For non-genetic methods of inducing reprogramming such as the use of direct protein application to the cells, protein mixtures, or cocktails, consisting of reprogramming factors at 8 μg/mL were added to cell solution and maintained for 24 hrs prior to medium change. This step was repeated for an additional two to four times. […]

Compound	maintenance of cells in an undifferentiated state (SSEA4 and Tra181 surface expression) ([1]; compared with Y27632)	colony morphology ([1]; relative to Y27632)	post-sort seeding (human fibroblasts)
O=C(NCc1ccccc1)c1csc(Nc2ccncn2)n1 [Thiazovivin]	preferred over Y27632; also recorded: better supports the maintenance of cells in an undifferentiated state	more compact in morphology	
fibronectin			improved post-sort seeding
